The record followed here is patent US9777309B2, “High throughput assay for monitoring AMP production and aminoacyl-tRNA synthetase activity” (Board of Supervisors of Louisiana State University and …, priority 2014, dated 2017).

In one assay the target is IMP dehydrogenase (Saccharomyces cerevisiae, UniProt P50095). The class given is biochemical.
In assay [1] the target is G. stearothermophilus tyrosyl-tRNA synthetase (Geobacillus stearothermophilus, UniProt P00952). Description: Tyrosyl-tRNA synthetase assay with tRNA recycling (AMP release coupled to NADH). The conditions noted are these: for kcat: aminoacylation of tRNA^Tyr by the named tyrosine isomer, 10 mM MgATP.
Chain of G. stearothermophilus tyrosyl-tRNA synthetase (P00952 whole entry): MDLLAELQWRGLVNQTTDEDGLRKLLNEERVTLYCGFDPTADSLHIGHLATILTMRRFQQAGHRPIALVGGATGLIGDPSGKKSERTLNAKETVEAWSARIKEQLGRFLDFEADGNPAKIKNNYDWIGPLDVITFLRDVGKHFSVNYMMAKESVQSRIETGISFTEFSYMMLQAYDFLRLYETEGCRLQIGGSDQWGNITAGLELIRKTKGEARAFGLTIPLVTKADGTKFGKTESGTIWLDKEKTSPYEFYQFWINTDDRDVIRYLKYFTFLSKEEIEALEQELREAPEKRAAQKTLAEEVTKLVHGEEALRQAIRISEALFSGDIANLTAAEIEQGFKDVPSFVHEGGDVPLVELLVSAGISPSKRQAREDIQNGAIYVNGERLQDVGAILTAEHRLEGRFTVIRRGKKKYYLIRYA
Method: The pH of all stock solutions was adjusted to 7.0 prior to use. All kinetic assays were performed in 96 well microtiter plates at 25° C. using either 100 or 200 μl of assay mix per well. Under these conditions, the path lengths are 0.28 and 0.56 cm, respectively. The reaction rate for formation of the L-Tyr-tRNA^TYr product was determined by monitoring the increase in absorbance at 340 nm associated with the conversion of NAD^+ to NADH using a BioTek Synergy 4 plate reader (ε340=6220 M^−1 cm^−1).
Initial rates for each substrate concentration were determined from a linear fit of the data (A340 vs. time). Km and Vmax values were determined by fitting a plot of the initial rate vs. substrate concentration to the Michaelis-Menten equation, the same equations (1) and (2) above:
[formula] where vo is the initial rate of the reaction and [S] is the substrate concentration. kcat values were calculated from the equation: Vmax=kcat[E]

Chain of IMP dehydrogenase (P50095 whole entry): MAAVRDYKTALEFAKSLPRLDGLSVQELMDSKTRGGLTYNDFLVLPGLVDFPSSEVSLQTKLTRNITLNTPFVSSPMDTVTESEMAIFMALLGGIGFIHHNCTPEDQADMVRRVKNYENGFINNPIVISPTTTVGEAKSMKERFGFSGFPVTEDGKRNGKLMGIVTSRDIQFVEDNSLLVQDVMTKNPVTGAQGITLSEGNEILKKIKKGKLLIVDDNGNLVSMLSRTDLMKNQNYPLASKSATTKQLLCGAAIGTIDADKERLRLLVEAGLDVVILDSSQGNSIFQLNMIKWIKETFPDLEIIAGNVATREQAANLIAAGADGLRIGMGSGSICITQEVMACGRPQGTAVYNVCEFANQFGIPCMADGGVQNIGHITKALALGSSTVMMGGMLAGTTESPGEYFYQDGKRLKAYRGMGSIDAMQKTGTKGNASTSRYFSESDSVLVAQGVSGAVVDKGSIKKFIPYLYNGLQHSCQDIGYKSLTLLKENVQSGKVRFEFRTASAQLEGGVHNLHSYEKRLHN

As for `NC(=O)c1ccc[n+]([C@@H]2O[C@H](COP(=O)([O-])OP(=O)(O)OC[C@H]3O[C@@H](n4cnc5c(N)ncnc54)[C@H](O)[C@@H]3O)[C@@H](O)[C@H]2O)c1` [NAD^+], on IMP dehydrogenase (50 mM TRIS pH 7.2, 25° C., other substrate at 5 mM, standard error in parenthesis), the Km is 800 µM. On IMP dehydrogenase (S. cerevisiae vs Candida albicans enzyme), the “affinity higher than for the C. albicans IMP dehydrogenase homolog” value stood at 4 fold. `N[C@H](Cc1ccc(O)cc1)C(=O)O` [D-Tyrosine, D-tyrosine]: the kcat in assay [1] is given as 0.32 (±0.08) s^−1. In addition, the “Km^D-Tyr lower than Kd^D-Tyr determined by single turnover kinetics” value in assay [1] (single turnover assay was in the absence of tRNA^Tyr) was 8 fold. With `N[C@@H](Cc1ccc(O)cc1)C(=O)O` [L-Tyrosine, L-tyrosine], in assay [1], the kcat is listed as 2.8 (±0.6) s^−1.
